Measurements: US7704986B2, “Vitamin D3 analogues for the prevention and treatment of bone disorders” (K.U. Leuven Research and Development, priority 2004, dated 2010)

How the values were obtained:
vitamin D receptor (VDR) = molecular target: T1, vitamin D receptor (VDR) (Sus scrofa, UniProt A3RGC1); assay: Affinity for vitamin D receptor: competition with [3H]1α,25(OH)2D3; assay type: binding; details: pig intestinal mucosa supernatant, 4° C. 20 hours; 1α,25(OH)2D3 = 100%
T1 construct: high speed supernatant from intestinal mucosa homogenates obtained from normal pigs; from tissue; host or cells: pig intestinal mucosa (high speed supernatant of homogenate)
T1 sequence (A3RGC1 1-427): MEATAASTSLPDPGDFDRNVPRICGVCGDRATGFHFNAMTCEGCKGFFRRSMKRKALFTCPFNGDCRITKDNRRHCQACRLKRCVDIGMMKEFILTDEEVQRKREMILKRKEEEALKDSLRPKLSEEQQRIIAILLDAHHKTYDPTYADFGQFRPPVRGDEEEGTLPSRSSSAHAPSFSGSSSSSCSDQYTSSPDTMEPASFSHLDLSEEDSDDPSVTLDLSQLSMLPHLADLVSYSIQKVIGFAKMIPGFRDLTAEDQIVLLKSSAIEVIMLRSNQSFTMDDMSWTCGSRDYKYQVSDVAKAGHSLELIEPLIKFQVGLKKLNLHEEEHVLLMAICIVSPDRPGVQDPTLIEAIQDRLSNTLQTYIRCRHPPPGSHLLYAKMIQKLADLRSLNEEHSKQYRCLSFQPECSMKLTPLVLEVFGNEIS
Procedure: The methods used herein to evaluate the binding properties of vitamin D analogues are state of the art techniques used for steroid hormone (including vitamin D) binding assays. […] Incubation was performed at 4° C. for 20 hours and phase separation was obtained by addition of dextran-coated charcoal.

[1] = molecular target: T2, human vitamin D binding protein (hDBP) (Homo sapiens, UniProt P02774); assay: Affinity for human vitamin D binding protein; details: hDBP 0.18 μM, 4° C. 3 hours; 1,25(OH)2D3 = 100
T2 sequence (P02774 17-474): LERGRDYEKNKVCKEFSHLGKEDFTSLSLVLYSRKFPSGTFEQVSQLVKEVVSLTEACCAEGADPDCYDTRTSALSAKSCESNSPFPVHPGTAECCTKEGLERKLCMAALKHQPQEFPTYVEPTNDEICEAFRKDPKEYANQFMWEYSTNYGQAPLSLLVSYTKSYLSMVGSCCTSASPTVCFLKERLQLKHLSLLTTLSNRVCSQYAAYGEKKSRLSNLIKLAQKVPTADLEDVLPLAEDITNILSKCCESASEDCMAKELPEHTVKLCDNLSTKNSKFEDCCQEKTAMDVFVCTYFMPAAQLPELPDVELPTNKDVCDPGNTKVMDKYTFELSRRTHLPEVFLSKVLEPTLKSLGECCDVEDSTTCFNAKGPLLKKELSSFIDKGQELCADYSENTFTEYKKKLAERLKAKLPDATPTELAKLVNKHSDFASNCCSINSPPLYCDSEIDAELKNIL
Procedure: Binding of 1α,25(OH)2D3 analogues to hDBP was performed at 4° C. […] Phase separation was then obtained by the addition of 0.5 ml of cold dextran-coated charcoal.

NMRI mice = assay: In vivo activity: serum and femur calcium after 7 daily i.p. injections; details: for Serum calcium vs. control (%) / femur calcium vs. control (%): 7 days
Procedure: Eight weeks old, male NMRI mice were fed a vitamin D-replete diet (0.2% calcium, 1% phosphate, 2000 U vitamin D/kg; Hope Farms, Woerden, The Netherlands). Groups of six mice were intraperitoneally injected daily during 7 consecutive days with different doses of 1,25(OH)2D3 (0.2 and 0.4 μg/kg/day) or analogues. The control group was injected with vehicle (arachis oil). The average weight of each group of 6 mice was determined at the beginning and at the end of the experiment. The following parameters were evaluated: serum calcium and femur calcium. Serum calcium was measured by a microcolorimetric assay (Sigma, St. Louis, Mo.). Femurs were removed and femur calcium content was measured in HCl-dissolved bone ash (obtained by heating for 24 hours in an oven at 100° C.), using the same technique as for serum calcium. Student's t-tests were carried out to detect significant differences; p<0.05 was accepted as significant. […]

[2] = Table 6, dose 0.4 μg/kg/day, * in cell = p < 0.05
[3] = dose 0.2 μg/kg/d i.p., * in cell = P < 0.05
[4] = dose 0.4 μg/kg/d i.p., * in cell = P < 0.05

Structure (SMILES)	VDR (relative affinity) (vitamin D receptor (VDR)) [%]	DBP (relative affinity) [1] [%]	Serum calcium vs. control (%) (NMRI mice; [3])	Serum calcium vs. control (%) (NMRI mice; [4])	femur calcium vs. control (%) (NMRI mice; [3])	femur calcium vs. control (%) (NMRI mice; [4])	further results
CC(C)[C@H](O)CC[C@H](C)[C@@]1(C)CC[C@@H](/C=C/C=C2C[C@@H](O)C[C@H](O)C2)C1(C)C (stereo in doubt) [example 19, (1R,3R)-5-{(E)-3-[(S)-3-((S)-4-hydroxy-1-(S)-methyl-5-methyl-hexyl)-2,2,3-trimethyl-cyclopentyl]-allylidene}-cyclohexane-1,3-diol]	3	4					Serum calcium vs. control (%) (NMRI mice; dose 5 μg/kg/d i.p.): 100%; femur calcium vs. control (%) (NMRI mice; dose 5 μg/kg/d i.p., * in cell = P < 0.05): 115* %
C=C1/C(=C\C=C2/CCC[C@]3(C)[C@@H]([C@H](C)CCCC(C)(C)O)CC[C@@H]23)C[C@@H](O)C[C@@H]1O [1,25(OH)2D3, Calcitriol, reference compound]			121* %	136* %	97%	94* %	Femur calcium versus control (%) (NMRI mice; Table 6, dose 0.2 μg/kg/day): 97%; Serum calcium versus control (%) (NMRI mice; Table 6, dose 0.2 μg/kg/day, * in cell = p < 0.05): 121* %; Femur calcium versus control (%) (NMRI mice; [2]): 94* %; Serum calcium versus control (%) (NMRI mice; [2]): 136* %
CCC(O)(CC)CCC[C@H](C)[C@@]1(C)CC[C@@H](/C=C/C=C2C[C@@H](O)C[C@H](O)C2)C1(C)C [(1R,3R)-5-((E)-3-((1S,3R)-3-((1S)-5-ethyl-5-hydroxy-1-methylheptyl)-2,2,3-trimethylcyclopentyl)-2-propenylidene)cyclohexane-1,3-diol]	60	<0.1					
C=C1/C(=C\C=C\[C@@H]2CC[C@](C)([C@H](C)CCCC(O)(C(F)(F)F)C(F)(F)F)C2(C)C)C[C@@H](O)C[C@@H]1O [(1R,3S)-5-((Z,2E)-3-((1S,3R)-3-((1R)-6,6,6-trifluoro-5-hydroxy-1-methyl-5-(trifluoromethyl)hexyl)-2,2,3-trimethylcyclopentyl)-2-propenylidene)-4-methylenecyclohexane-1,3-diol]	30	40		98%		114* %	
C=C1/C(=C\C=C\[C@@H]2CC[C@](C)([C@@H](C)CCCC(O)(C(F)(F)F)C(F)(F)F)C2(C)C)C[C@@H](O)C[C@@H]1O [(1R,3S)-5-((Z,2E)-3-((1S,3R)-3-((1S)-6,6,6-trifluoro-5-hydroxy-1-methyl-5-(trifluoromethyl)hexyl)-2,2,3-trimethylcyclopentyl)-2-propenylidene)-4-methylenecyclohexane-1,3-diol]	60	6					Serum calcium vs. control (%) (NMRI mice; dose 0.05 μg/kg/d i.p.): 106%; femur calcium vs. control (%) (NMRI mice; dose 0.05 μg/kg/d i.p., * in cell = P < 0.05): 112* %
C=C1/C(=C\C=C\[C@@H]2CC[C@](C)([C@@H](C)CC[C@@H](O)C(C)C)C2(C)C)C[C@@H](O)C[C@@H]1O [example 20, (1R,3S)-5-((Z,2E)-3-((1S,3R)-3-((1S,4R)-4-hydroxy-1,5-dimethylhexyl)-2,2,3-trimethylcyclopentyl)-2-propenylidene)-4-methylenecyclohexane-1,3-diol]	9	4					Serum calcium vs. control (%) (NMRI mice; dose 10 μg/kg/d i.p.): 99%; femur calcium vs. control (%) (NMRI mice; dose 10 μg/kg/d i.p., * in cell = P < 0.05): 111* %

Now from value to molecule, other results behind:

VDR (relative affinity) (vitamin D receptor (VDR)) [%]	DBP (relative affinity) [1] [%]	Serum calcium vs. control (%) (NMRI mice; [3])	Serum calcium vs. control (%) (NMRI mice; [4])	Structure (SMILES)	femur calcium vs. control (%) (NMRI mice; [3])	femur calcium vs. control (%) (NMRI mice; [4])	further results
60	0			C=C1/C(=C\C=C\[C@@H]2CC[C@](C)([C@H](C)CC#CC(C)(C)O)C2(C)C)C[C@@H](O)C[C@@H]1O [(1R,3S)-5-((Z,2E)-3-((1S,3R)-3-((1R)-5-hydroxy-1,5-dimethyl-3-hexynyl)-2,2,3-trimethylcyclopentyl)-2-propenylidene)-4-methylenecyclohexane-1,3-diol]			Serum calcium vs. control (%) (NMRI mice; dose 2 μg/kg/d i.p.): 105%; femur calcium vs. control (%) (NMRI mice; dose 2 μg/kg/d i.p., * in cell = P < 0.05): 113* %
60	0		94%	C=C1/C(=C\C=C\[C@@H]2CC[C@](C)([C@H](C)CC#CC(O)(C(F)(F)F)C(F)(F)F)C2(C)C)C[C@@H](O)C[C@@H]1O [(1R,3S)-5-((Z,2E)-3-((1S,3R)-3-((1R)-6,6,6-trifluoro-5-hydroxy-1-methyl-5-trifluoromethyl-3-hexynyl)-2,2,3-trimethylcyclopentyl)-2-propenylidene)-4-methylenecyclohexane-1,3-diol]		115* %	
75	2	103%		C=C1/C(=C\C=C\[C@@H]2CC[C@](C)([C@@H](C)CC#CC(O)(C(F)(F)F)C(F)(F)F)C2(C)C)C[C@@H](O)C[C@@H]1O [(1R,3S)-5-((Z,2E)-3-((1S,3R)-3-((1S)-6,6,6-trifluoro-5-hydroxy-1-methyl-5-trifluoromethyl-3-hexynyl)-2,2,3-trimethylcyclopentyl)-2-propenylidene)-4-methylenecyclohexane-1,3-diol]	117* %		
20	4	98%		C=C1/C(=C\C=C\[C@@H]2CC[C@](C)([C@@H](C)CC[C@H](O)C(C)C)C2(C)C)C[C@@H](O)C[C@@H]1O [example 24, (1R,3S)-5-((Z,2E)-3-((1S,3R)-3-((1S,4S)-4-hydroxy-1,5-dimethylhexyl)-2,2,3-trimethylcyclopentyl)-2-propenylidene)-4-methylenecyclohexane-1,3-diol]	112* %		
